Data as given in patent publication US20220089541A1, “Compounds for the Treatment of Kinase-Dependent Disorders” (Exelixis, Inc., priority 2019, published 2022).

Experiments:
[1] = Microsomal assay, rat liver microsome stability; conditions: liver microsomes, pH 7.4
Description: (§1) Liver microsomes tissue fractions were used for in vitro assessment of metabolic stability of compounds by cytochrome P450 (CYP450) (for example, CYP3A4, CYP2C9) mediated phase I oxidation, and metabolism through other pathways. Human, mouse, rat, and dog liver microsomes tissue fractions were obtained from Corning Gentest and BioreclamationIVT.
(§2) The assay was carried out in 96-well microtiter plates. Compounds were incubated (N=l) at 37° C. in the presence of liver microsomes. Reaction mixtures (25 μL) contained a final concentration of 1 μM test compound, 0.5 mg/mL liver microsomes (LM) protein, and 1 mM NADPH in 100 mM potassium phosphate, pH 7.4 buffer with 3.3 mM MgCl2. The extent of metabolism was calculated as the disappearance of the test compound, compared to the 0-min control reaction incubations. Verapamil was included as a positive control to verily assay performance.
(§3) At each of the four time points, 150 μL of quench solution (100% acetonitrile with 0.1% formic acid) with internal standard (bucetin for positive ESI mode) was transferred to each well. Plates were sealed and centrifuged at 10° C. for 15 minutes at 4000 rpm. The supernatant was transferred to fresh plates for LC/MS/MS analysis.
(§4) All samples were analyzed on LC/MS/MS using an AB Sciex API 4000 instrument, coupled to a Shimadzu LC-20AD LC Pump system. Analytical samples were separated using a Waters Atlantis T3 dC18 reverse phase HPLC column (20 mm×2.1 mm) at a flow rate of 0.5 mL/min. The mobile phase consisted of 0.1% formic acid in water (solvent A) and 0.1% formic acid in 100% acetonitrile (solvent B).

Mer = biological target: T1, Mer (Homo sapiens, UniProt Q12866); test: Mer autophosphorylation ELISA in transient transfected 293A cells; type: cell-based; conditions: 293A cells transfected with MERTK DNA, phospho-Mer ELISA, 1 h compound incubation
T1 construct: host or cells: 293A cells (Thermo Fisher #R70507)
T1 sequence (Q12866 21-999): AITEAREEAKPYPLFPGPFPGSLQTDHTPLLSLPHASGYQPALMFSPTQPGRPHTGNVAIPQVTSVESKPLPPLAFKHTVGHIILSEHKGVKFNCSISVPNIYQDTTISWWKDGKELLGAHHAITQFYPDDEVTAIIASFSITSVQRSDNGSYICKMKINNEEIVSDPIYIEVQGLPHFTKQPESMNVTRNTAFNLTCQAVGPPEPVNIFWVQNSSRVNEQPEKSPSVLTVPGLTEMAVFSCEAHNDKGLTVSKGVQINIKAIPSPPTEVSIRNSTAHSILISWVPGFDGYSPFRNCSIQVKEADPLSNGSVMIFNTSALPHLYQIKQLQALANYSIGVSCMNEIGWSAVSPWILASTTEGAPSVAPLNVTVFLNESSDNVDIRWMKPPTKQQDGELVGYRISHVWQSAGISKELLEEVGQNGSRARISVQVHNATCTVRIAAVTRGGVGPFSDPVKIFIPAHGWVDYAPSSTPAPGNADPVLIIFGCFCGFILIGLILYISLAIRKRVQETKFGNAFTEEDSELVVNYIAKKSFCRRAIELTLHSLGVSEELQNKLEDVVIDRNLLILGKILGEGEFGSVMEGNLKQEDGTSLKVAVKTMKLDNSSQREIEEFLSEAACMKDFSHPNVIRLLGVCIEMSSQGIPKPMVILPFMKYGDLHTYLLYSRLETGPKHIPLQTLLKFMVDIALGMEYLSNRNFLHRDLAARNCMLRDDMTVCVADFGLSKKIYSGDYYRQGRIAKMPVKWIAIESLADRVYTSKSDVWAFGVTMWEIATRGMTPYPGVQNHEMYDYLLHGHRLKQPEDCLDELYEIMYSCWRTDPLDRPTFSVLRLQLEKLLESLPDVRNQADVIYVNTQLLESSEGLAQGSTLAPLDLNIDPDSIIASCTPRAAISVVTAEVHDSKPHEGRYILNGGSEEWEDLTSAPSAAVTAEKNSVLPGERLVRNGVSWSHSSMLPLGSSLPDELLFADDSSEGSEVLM
Description: Example D: Mer Autophosphorylation ELISA in Transient Transfected 293A Cells
293A cells (Thermo Fisher #R70507) were seeded at 1.5×10^6 cells/well onto 100 mm dish (Greiner #664169), in DMEM (Thermo Fisher #11995-040) containing 10% FBS (Thermo Fisher #26140-079), 1% MEM NEAA (Thermo Fisher #11140-050), 1% GlutaMax (Thermo Fisher #35050-061), and 1% Penicillin Streptomycin (Thermo Fisher #15140-122). 293A cells were incubated at 37° C., 5% CO2 for 24 h and then transfected with 6 μg MERTK DNA (Genecopoeia #EX-Z8208-M02) using TransIT LT1 transfection reagent (Mirus-Bio #MIR2305). After 24 h incubation, the transfected 293A cells were seeded at 1×10^5 cells/well onto 96-well plates (Corning #3904) in DMEM growth medium overnight. Test compounds were serially diluted to produce an 8-point dose curve in fresh serum-free medium to a final concentration of 0.3% DMSO (vehicle) and added to the cells and incubated for 1 h. Cells were then immediately lysed with 150 μL of cold IX lysis buffer [20 mM Tris, 137 mM sodium chloride, 2 mM EDTA, 10% glycerol, l % NP-40 alternative, 1 mM activated sodium orthovanadate, 1 mM PefaBloc SC (Sigma-Aldrich #11429868001), protease/phosphatase inhibitor tablet (Thermo Fisher #A32959)]. Lysates were clarified by centrifugation and 50 μL/well added into the human phospho-Mer DuoSet IC ELISA (R&D Systems #DYC2579-2). Assay was performed according to manufacturer's instructions and sample phospho-Mer concentrations were extrapolated using human phospho-Mer control (R&D Systems #841793) as a standard. Positive control wells (100% activity) contained DMSO-treated cell lysates. Negative control wells (0% activity) contained reference inhibitor-treated cell lysates. IC50 values were calculated by nonlinear regression analysis using a 4-parameter logistic curve fit in ActivityBase XE (IDBS).

[2] = Microsomal assay, mouse liver microsome stability; conditions: liver microsomes, pH 7.4
Description: as §1, §2, §3, §4

[3] = Microsomal assay, human liver microsome stability; conditions: liver microsomes, pH 7.4
Description: as §1, §2, §3, §4

| Structure (SMILES) | half-life at 1 μM [1] | IC50 (Mer) | half-life at 1 μM [2] | half-life at 1 μM [3] |
| --- | --- | --- | --- | --- |
| COc1cc2nccc(Oc3ccc(NC(=O)C4(C(=O)N(C)c5ccc(F)cc5)CC4)cc3)c2cc1OC [Compound 9, 1-N-[4-(6,7-Dimethoxyquinolin-4-yl)oxyphenyl]-1-N′-(4-fluorophenyl)-1-N′-methylcyclopropane-1,1-dicarboxamide] | 1.4 min | > 300 nM | 3.1 min | 1.4 min |
| COc1cc2nccc(Oc3ccc(NC(=O)C4(C(=O)N(C)c5ccc(F)cc5)CC4)cc3F)c2cc1OC [Compound 10, N-(4-((6,7-Dimethoxyquinolin-4-yl)oxy)-3-fluorophenyl)-N-(4-fluorophenyl)-N-methylcyclopropane-1,1-dicarboxamide] | 1.3 min | > 300 nM | 4.1 min | 1.3 min |
| CNC(=O)c1cc2c(Oc3ncc(NC(=O)C4(C(=O)N(C)c5ccc(F)cc5)CC4)cc3F)ccnc2cc1OC [Compound 34, 1-N-[5-Fluoro-6-[7-methoxy-6-(methylcarbamoyl)quinolin-4-yl]oxypyridin-3-yl]-1-N′-(4-fluorophenyl)-1-N′-methylcyclopropane-1,1-dicarboxamide] | 1.3 min | > 300 nM | 2.6 min | 1.3 min |
| COc1cc2nccc(Oc3ncc(NC(=O)C4(C(=O)N(C)c5ccc(F)cc5)CC4)cc3F)c2cc1C(N)=O [Compound 35, 1-N-[6-(6-Carbamoyl-7-methoxyquinolin-4-yl)oxy-5-fluoropyridin-3-yl]-1-N′-(4-fluorophenyl)-1-N′-methylcyclopropane-1,1-dicarboxamide] | 1.2 min | > 300 nM | 1.9 min | 1.3 min |
| COc1cc2nccc(Oc3ccc(N(C)C(=O)C4(C(=O)Nc5ccc(F)cc5)CC4)cc3F)c2cc1OC [Compound 51, 1-N′-[4-(6,7-Dimethoxyquinolin-4-yl)oxy-3-fluorophenyl]-1-N-(4-fluorophenyl)-1-N′-methylcyclopropane-1,1-dicarboxamide] | 14.3 min | > 300 nM | 9.6 min | 29.7 min |
